Results on 11 compounds are retold here after patent US20240270762A1, “PENICILLIN-BINDING PROTEIN INHIBITORS” (priority 2021, published 2024).

The subject of one experiment is A. baumannii ATCC 19606. Kind of experiment: microbe, parasite or virus in culture. The format is cell-based. The note with it: Acinetobacter baumannii, ATCC19606, read-out: MIC, A. baumannii ATCC 19606.
Another experiment concerns the target T1, A. baumannii PBP1a (Acinetobacter baumannii, UniProt A0ABX6CK30).
T1 sequence (A0ABX6CK30 1-851): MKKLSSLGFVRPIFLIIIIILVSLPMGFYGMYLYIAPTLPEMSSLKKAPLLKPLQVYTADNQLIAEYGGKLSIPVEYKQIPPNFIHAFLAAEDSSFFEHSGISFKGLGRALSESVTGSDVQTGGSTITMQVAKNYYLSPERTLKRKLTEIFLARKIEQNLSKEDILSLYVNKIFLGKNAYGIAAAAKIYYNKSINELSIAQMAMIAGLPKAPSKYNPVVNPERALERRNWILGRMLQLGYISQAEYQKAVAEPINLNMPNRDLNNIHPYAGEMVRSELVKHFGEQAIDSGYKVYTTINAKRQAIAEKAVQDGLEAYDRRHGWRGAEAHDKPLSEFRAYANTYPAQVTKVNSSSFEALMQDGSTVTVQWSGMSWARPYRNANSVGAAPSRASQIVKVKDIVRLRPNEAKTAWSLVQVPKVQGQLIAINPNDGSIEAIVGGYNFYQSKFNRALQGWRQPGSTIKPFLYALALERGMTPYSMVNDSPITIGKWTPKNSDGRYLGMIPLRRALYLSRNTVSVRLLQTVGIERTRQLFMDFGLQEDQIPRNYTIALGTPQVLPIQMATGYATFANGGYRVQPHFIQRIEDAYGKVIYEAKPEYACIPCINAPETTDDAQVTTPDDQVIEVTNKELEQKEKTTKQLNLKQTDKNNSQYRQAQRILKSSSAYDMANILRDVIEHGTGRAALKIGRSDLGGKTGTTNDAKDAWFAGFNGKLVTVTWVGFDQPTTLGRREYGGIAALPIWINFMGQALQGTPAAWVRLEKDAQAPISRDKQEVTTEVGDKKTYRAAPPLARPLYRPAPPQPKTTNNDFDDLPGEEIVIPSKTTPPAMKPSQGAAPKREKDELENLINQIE
Description: Bocillin-FL competition binding via gel filtration, A. baumannii PBP1a. Conditions: competition binding assay using Bocillin-FL via gel filtration; read-out: A. baumannii PBP1a Potency. In short, it runs like this:
(§1)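 Competitive equilibrium binding; reporter Bocillin-FL. PBP + inhibitor (titration) pre-incubated → Bocillin-FL, 15 min → gel filtration → fluorescence. EC50 from Hill fit of fraction bound vs [inhibitor].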
A general note: SEC sorts molecules by how far they enter the pores of the column.

Another experiment has as its target A. baumannii PBP2 (Acinetobacter baumannii, UniProt D0C8Z9). Description: Bocillin-FL competition binding via gel filtration, A. baumannii PBP2. In short, it runs like this:
as §1

A further experiment relates to A. baumannii CDC-0036. Kind of experiment: microbe, parasite or virus in culture. The format is cell-based. Conditions: Acinetobacter baumannii, CDC0036, read-out: MIC, A. baumannii CDC-0036.
The next experiment has as its system P. aeruginosa CDC-0110. Description: microbe, parasite or virus in culture. The format is cell-based. Conditions: Pseudomonas aeruginosa, CDC0110, read-out: Minimum inhibitory concentration, P. aeruginosa CDC-0110.

Values after ≈ are worked out from the molar mass of the structure shown.

Sequence of A. baumannii PBP2 (D0C8Z9 whole entry): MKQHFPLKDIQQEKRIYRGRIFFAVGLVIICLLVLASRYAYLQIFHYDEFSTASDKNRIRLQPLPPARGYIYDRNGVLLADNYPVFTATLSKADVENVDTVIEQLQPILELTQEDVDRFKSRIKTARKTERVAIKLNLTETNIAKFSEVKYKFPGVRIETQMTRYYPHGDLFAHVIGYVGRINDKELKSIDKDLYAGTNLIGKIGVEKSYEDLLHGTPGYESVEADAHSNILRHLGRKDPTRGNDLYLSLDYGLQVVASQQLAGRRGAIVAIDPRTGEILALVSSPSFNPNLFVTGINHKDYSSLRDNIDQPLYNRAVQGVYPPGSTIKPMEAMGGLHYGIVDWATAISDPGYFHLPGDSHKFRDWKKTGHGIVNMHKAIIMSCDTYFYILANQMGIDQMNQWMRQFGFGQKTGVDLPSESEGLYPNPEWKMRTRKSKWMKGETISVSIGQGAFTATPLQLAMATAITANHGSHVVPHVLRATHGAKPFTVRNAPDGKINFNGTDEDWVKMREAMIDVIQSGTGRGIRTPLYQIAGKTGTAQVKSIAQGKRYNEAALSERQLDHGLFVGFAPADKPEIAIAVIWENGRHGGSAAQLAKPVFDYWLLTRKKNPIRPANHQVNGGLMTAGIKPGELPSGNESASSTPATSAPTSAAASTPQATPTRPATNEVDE

As for `O=C(NCCCN1CCN(C(=O)NC(C(=O)N[C@H]2Cc3ccc(F)c(C(=O)O)c3OB2O)c2cc(F)c(O)c(O)c2Cl)C(=O)C1=O)c1ccc(F)c(O)c1` (stereo partly drawn) [Example 409, (3R)-3-(2-(2-chloro-5-fluoro-3,4-dihydroxyphenyl)-2-(4-(3-(4-fluoro-3-hydroxybenzamido)propyl)-2,3-dioxopiperazine-1-carboxamido)acetamido)-7-fluoro-2-hydroxy-3,4-dihydro-2H-benzo[e][1,2]oxaborinine-8-carboxylic acid], the MIC in the experiment with A. baumannii ATCC 19606 is < 1 µg/mL; in the experiment on A. baumannii CDC-0036 it was 2 to 4 µg/mL (≈ 2.57 to 5.14 µM); with P. aeruginosa CDC-0110 it was < 1 µg/mL. Moreover, the EC50 on A. baumannii PBP1a and at A. baumannii PBP2 was < 10 µM in each case.

For `O=C(NCCCN1CCN(C(=O)NC(C(=O)N[C@H]2Cc3ccc(F)c(C(=O)O)c3OB2O)c2cc(F)c(O)c(O)c2Cl)C(=O)C1=O)c1cc(O)cc(F)c1` (stereo partly drawn) [Example 410, (3R)-3-(2-(2-chloro-5-fluoro-3,4-dihydroxyphenyl)-2-(4-(3-(3-fluoro-5-hydroxybenzamido)propyl)-2,3-dioxopiperazine-1-carboxamido)acetamido)-7-fluoro-2-hydroxy-3,4-dihydro-2H-benzo[e][1,2]oxaborinine-8-carboxylic acid], the figures for the MIC in the experiment with A. baumannii ATCC 19606, with A. baumannii CDC-0036 and with P. aeruginosa CDC-0110 were < 1 µg/mL, 2 to 4 µg/mL (≈ 2.57 to 5.14 µM) and < 1 µg/mL, respectively. The EC50 at A. baumannii PBP1a and at A. baumannii PBP2 was < 10 µM each time.

For the compound `O=C(NCCCN1CCN(C(=O)NC(C(=O)N[C@H]2Cc3ccc(F)c(C(=O)O)c3OB2O)c2cc(F)c(O)c(O)c2Cl)C(=O)C1=O)c1ccc(F)c(O)c1F` (stereo partly drawn) [Example 411, (3R)-3-(2-(2-chloro-5-fluoro-3,4-dihydroxyphenyl)-2-(4-(3-(2,4-difluoro-3-hydroxybenzamido)propyl)-2,3-dioxopiperazine-1-carboxamido)acetamido)-7-fluoro-2-hydroxy-3,4-dihydro-2H-benzo[e][1,2]oxaborinine-8-carboxylic acid], the MIC was < 1 µg/mL in the experiment with A. baumannii ATCC 19606, 2 to 4 µg/mL (≈ 2.51 to 5.03 µM) in the experiment with A. baumannii CDC-0036 and < 1 µg/mL with P. aeruginosa CDC-0110. The EC50 on A. baumannii PBP1a and on A. baumannii PBP2 was < 10 µM each time.

Regarding `O=C(NCCCN1CCN(C(=O)NC(C(=O)N[C@H]2Cc3ccc(F)c(C(=O)O)c3OB2O)c2cc(F)c(O)c(O)c2Cl)C(=O)C1=O)c1ccc(F)c(O)c1Cl` (stereo partly drawn) [Example 412, (3R)-3-(2-(4-(3-(2-chloro-4-fluoro-3-hydroxybenzamido)propyl)-2,3-dioxopiperazine-1-carboxamido)-2-(2-chloro-5-fluoro-3,4-dihydroxyphenyl)acetamido)-7-fluoro-2-hydroxy-3,4-dihydro-2H-benzo[e][1,2]oxaborinine-8-carboxylic acid], the figures for the MIC with A. baumannii ATCC 19606, in the experiment with A. baumannii CDC-0036 and with P. aeruginosa CDC-0110 were < 1 µg/mL, 8 to 16 µg/mL (≈ 9.85 to 19.7 µM) and < 1 µg/mL, respectively. In addition, the EC50 on A. baumannii PBP1a and on A. baumannii PBP2 was < 10 µM throughout.

As for `O=C(NCCCN1CCN(C(=O)NC(C(=O)N[C@H]2Cc3ccc(F)c(C(=O)O)c3OB2O)c2cc(F)c(O)c(O)c2Cl)C(=O)C1=O)c1c(F)ccc(O)c1F` (stereo partly drawn) [Example 413, (3R)-3-(2-(2-chloro-5-fluoro-3,4-dihydroxyphenyl)-2-(4-(3-(2,6-difluoro-3-hydroxybenzamido)propyl)-2,3-dioxopiperazine-1-carboxamido)acetamido)-7-fluoro-2-hydroxy-3,4-dihydro-2H-benzo[e][1,2]oxaborinine-8-carboxylic acid], the MIC in the experiment on A. baumannii ATCC 19606 was < 1 µg/mL; in the experiment with A. baumannii CDC-0036, 2 to 4 µg/mL (≈ 2.51 to 5.03 µM); in the experiment on P. aeruginosa CDC-0110, < 1 µg/mL. For the same compound, the EC50 on A. baumannii PBP1a is < 10 µM; on A. baumannii PBP2, 10 to 50 µM.

In the case of `O=C(NCCCN1CCN(C(=O)NC(C(=O)N[C@H]2Cc3ccc(F)c(C(=O)O)c3OB2O)c2cc(F)c(O)c(O)c2Cl)C(=O)C1=O)c1c(F)ccc(O)c1Cl` (stereo partly drawn) [Example 414, (3R)-3-(2-(2-chloro-5-fluoro-3,4-dihydroxyphenyl)-2-(4-(3-(2-chloro-6-fluoro-3-hydroxybenzamido)propyl)-2,3-dioxopiperazine-1-carboxamido)acetamido)-7-fluoro-2-hydroxy-3,4-dihydro-2H-benzo[e][1,2]oxaborinine-8-carboxylic acid], the results for the MIC in the experiment with A. baumannii ATCC 19606, with A. baumannii CDC-0036 and in the experiment on P. aeruginosa CDC-0110 were < 1 µg/mL, 2 to 4 µg/mL (≈ 2.46 to 4.92 µM) and < 1 µg/mL, respectively. The EC50 at A. baumannii PBP1a and at A. baumannii PBP2 was < 10 µM throughout.

Consider `O=C(NCCCN1CCN(C(=O)NC(C(=O)N[C@H]2Cc3ccc(F)c(C(=O)O)c3OB2O)c2cc(F)c(O)c(O)c2Cl)C(=O)C1=O)c1cc(O)c(F)c(O)c1F` (stereo partly drawn) [Example 415, (3R)-3-(2-(2-chloro-5-fluoro-3,4-dihydroxyphenyl)-2-(4-(3-(2,4-difluoro-3,5-dihydroxybenzamido)propyl)-2,3-dioxopiperazine-1-carboxamido)acetamido)-7-fluoro-2-hydroxy-3,4-dihydro-2H-benzo[e][1,2]oxaborinine-8-carboxylic acid], for which the MIC with A. baumannii ATCC 19606 was < 1 µg/mL; with A. baumannii CDC-0036, 2 to 4 µg/mL (≈ 2.46 to 4.93 µM); in the experiment with P. aeruginosa CDC-0110, < 1 µg/mL. The values for the EC50 at A. baumannii PBP1a and at A. baumannii PBP2 were < 10 µM and 10 to 50 µM, respectively.

With `O=C(NCCCN1CCN(C(=O)NC(C(=O)N[C@H]2Cc3ccc(F)c(C(=O)O)c3OB2O)c2cc(F)c(O)c(O)c2Cl)C(=O)C1=O)c1cc(O)c(F)c(O)c1` (stereo partly drawn) [Example 416, (3R)-3-(2-(2-chloro-5-fluoro-3,4-dihydroxyphenyl)-2-(4-(3-(4-fluoro-3,5-dihydroxybenzamido)propyl)-2,3-dioxopiperazine-1-carboxamido)acetamido)-7-fluoro-2-hydroxy-3,4-dihydro-2H-benzo[e][1,2]oxaborinine-8-carboxylic acid], the MIC with A. baumannii ATCC 19606 is < 1 µg/mL; in the experiment on A. baumannii CDC-0036, 2 to 4 µg/mL (≈ 2.52 to 5.04 µM); in the experiment on P. aeruginosa CDC-0110, < 1 µg/mL. Moreover, the EC50 at A. baumannii PBP1a and at A. baumannii PBP2 was < 10 µM in each case.

Turning to `O=C(NCCCN1CCN(C(=O)NC(C(=O)N[C@H]2Cc3ccc(F)c(C(=O)O)c3OB2O)c2cc(F)c(O)c(O)c2Cl)C(=O)C1=O)c1ccc(O)c(F)c1Cl` (stereo partly drawn) [Example 418, (3R)-3-(2-(4-(3-(2-chloro-3-fluoro-4-hydroxybenzamido)propyl)-2,3-dioxopiperazine-1-carboxamido)-2-(2-chloro-5-fluoro-3,4-dihydroxyphenyl)acetamido)-7-fluoro-2-hydroxy-3,4-dihydro-2H-benzo[e][1,2]oxaborinine-8-carboxylic acid], the MIC in the experiment on A. baumannii ATCC 19606 was < 1 µg/mL; in the experiment with A. baumannii CDC-0036, 2 to 4 µg/mL (≈ 2.46 to 4.92 µM); in the experiment with P. aeruginosa CDC-0110 it was < 1 µg/mL. The EC50 at A. baumannii PBP1a and at A. baumannii PBP2 was < 10 µM in each case.

As for `O=C(NCCCN1CCN(C(=O)NC(C(=O)N[C@H]2Cc3ccc(F)c(C(=O)O)c3OB2O)c2cc(F)c(O)c(O)c2Cl)C(=O)C1=O)c1ccc(O)c(Cl)c1F` (stereo partly drawn) [Example 419, (3R)-3-(2-(4-(3-(3-chloro-2-fluoro-4-hydroxybenzamido)propyl)-2,3-dioxopiperazine-1-carboxamido)-2-(2-chloro-5-fluoro-3,4-dihydroxyphenyl)acetamido)-7-fluoro-2-hydroxy-3,4-dihydro-2H-benzo[e][1,2]oxaborinine-8-carboxylic acid], the MIC in the experiment on A. baumannii ATCC 19606 was < 1 µg/mL; in the experiment with A. baumannii CDC-0036, 2 to 4 µg/mL (≈ 2.46 to 4.92 µM); in the experiment with P. aeruginosa CDC-0110, < 1 µg/mL. Further, the EC50 on A. baumannii PBP1a and on A. baumannii PBP2 was < 10 µM in each case.

As for `O=C(NCCCN1CCN(C(=O)NC(C(=O)N[C@H]2Cc3ccc(F)c(C(=O)O)c3OB2O)c2cc(F)c(O)c(O)c2Cl)C(=O)C1=O)c1c(F)cc(O)cc1Cl` (stereo partly drawn) [Example 421, (3R)-3-(2-(2-chloro-5-fluoro-3,4-dihydroxyphenyl)-2-(4-(3-(2-chloro-6-fluoro-4-hydroxybenzamido)propyl)-2,3-dioxopiperazine-1-carboxamido)acetamido)-7-fluoro-2-hydroxy-3,4-dihydro-2H-benzo[e][1,2]oxaborinine-8-carboxylic acid], the MIC in the experiment on A. baumannii ATCC 19606 is < 1 µg/mL; in the experiment with A. baumannii CDC-0036 it was 2 to 4 µg/mL (≈ 2.46 to 4.92 µM); in the experiment on P. aeruginosa CDC-0110, < 1 µg/mL. For the same compound, the EC50 at A. baumannii PBP1a and on A. baumannii PBP2 was < 10 µM throughout.
